Measurements reported in PubChem BioAssay AID216 (DTP/NCI, 2004).
Values joined by “and” are separate entries in the source; they are usually repeats but may differ in a detail not shown here. Equal values may be shown once. Inconclusive results and toxic doses are left out. The calls were made as follows: active = survival T/C of 150% or more; inactive = T/C below 125% in these data.

Tested on: BDF1 mice, P288 leukemia ip, survival T/C
Test: NCI In Vivo Anticancer Drug Screen. Data for tumor model P288 Lymphocytic Leukemia (intraperitoneal) in B6D2F1 (BDF1) mice
Conditions: endpoint: survival time, mean or median, higher = longer survival
Procedure: The antitumor activity of compounds was measured in mice bearing transplantable tumors. Survival or tumor size were measured and the results are expressed as the measurement made in the treated group (T) divided by the measurement made in the vehicle treated control group (C). The tumor model used in this assay is P288 Lymphocytic Leukemia (intraperitoneal) in B6D2F1 (BDF1) mice

[1] = dose: 5.0 mg/kg/injection, schedule: Q01DX010 (ip), vehicle: saline
[2] = dose: 10.0 mg/kg/injection, schedule: Q01DX010 (ip), vehicle: saline
[3] = dose: 20.0 mg/kg/injection, schedule: Q01DX010 (ip), vehicle: saline
[4] = dose: 3.1 mg/kg/injection, schedule: Q01DX Z (ip), vehicle: carboxymethylcellulose (CMC)
[5] = dose: 6.25 mg/kg/injection, schedule: Q01DX Z (ip), vehicle: carboxymethylcellulose (CMC)
[6] = dose: 12.5 mg/kg/injection, schedule: Q01DX Z (ip), vehicle: carboxymethylcellulose (CMC)
[7] = dose: 25.0 mg/kg/injection, schedule: Q01DX Z (ip), vehicle: carboxymethylcellulose (CMC)
[8] = dose: 1.0 mg/kg/injection, schedule: Q01DX Z (ip), vehicle: saline
[9] = dose: 6.25 mg/kg/injection, schedule: Q01DX010 (ip), vehicle: saline
[10] = dose: 12.5 mg/kg/injection, schedule: Q01DX010 (ip), vehicle: saline
[11] = dose: 25.0 mg/kg/injection, schedule: Q01DX010 (ip), vehicle: saline
[12] = dose: 50.0 mg/kg/injection, schedule: Q01DX010 (ip), vehicle: saline
[13] = dose: 100.0 mg/kg/injection, schedule: Q01DX010 (ip), vehicle: saline
[14] = dose: 200.0 mg/kg/injection, schedule: Q01DX010 (ip), vehicle: saline
[15] = dose: 400.0 mg/kg/injection, schedule: Q01DX010 (ip), vehicle: saline

Measured: T/C

CC[n+]1c(-c2ccccc2)c2cc(N)ccc2c2ccc(N)cc21
inactive: dose: 40.0 mg/kg/injection, schedule: Q01DX010 (ip), vehicle: saline 100 % of control
active: dose: 2.5 mg/kg/injection, schedule: Q01DX010 (ip), vehicle: saline 152 % of control | [1] 170 % of control and 228 % of control | [2] 223 % of control and 285 % of control | [3] 158 % of control and 185 % of control

S=P(N1CCOCC1)(N1CC1)N1CC1
inactive: [4] 92 % of control | [5] 119 % of control | [2] 95 % of control | [6] 90 % of control | [3] 95 % of control | [7] 86 % of control

CN1CC[C@]23c4c5ccc(O)c4O[C@H]2C(=O)CC[C@H]3[C@H]1C5
inactive: dose: 0.5 mg/kg/injection, schedule: Q01DX010 (ip), vehicle: saline 106 % of control | dose: 1.0 mg/kg/injection, schedule: Q01DX010 (ip), vehicle: saline 118 % of control | dose: 2.0 mg/kg/injection, schedule: Q01DX010 (ip), vehicle: saline 106 % of control | dose: 4.0 mg/kg/injection, schedule: Q01DX010 (ip), vehicle: saline 100 % of control

O=NN(CCCl)C(=O)NCCCl
inactive: [8] 121 % of control | dose: 2.0 mg/kg/injection, schedule: Q01DX Z (ip), vehicle: saline 117 % of control | [11] 106 % of control and 121 % of control | [12] 87 % of control | dose: 64.0 mg/kg/injection, schedule: Q01DX Z (ip), vehicle: saline 101 % of control
active: [9] 193 % of control and 428 % of control | [10] 150 % of control and 192 % of control | dose: 16.0 mg/kg/injection, schedule: Q01DX Z (ip), vehicle: saline 203 % of control | dose: 32.0 mg/kg/injection, schedule: Q01DX Z (ip), vehicle: saline 263 % of control

Nc1c(I)cc(I)cc1C(=O)O
inactive: [11] 100 % of control | [12] 112 % of control and 100 % of control | [13] 112 % of control and 100 % of control | [14] 100 % of control | [15] 106 % of control

CSCS(=O)C[C@H](CO)NC(=O)/C=C/c1c(C)[nH]c(=O)[nH]c1=O (stereo partly drawn)
inactive: dose: 0.06 mg/kg/injection, schedule: Q01DX Z (ip), vehicle: saline 102 % of control | dose: 0.12 mg/kg/injection, schedule: Q01DX Z (ip), vehicle: saline 96 % of control | dose: 0.25 mg/kg/injection, schedule: Q01DX Z (ip), vehicle: saline 107 % of control and 96 % of control | dose: 0.5 mg/kg/injection, schedule: Q01DX Z (ip), vehicle: saline 90 % of control and 96 % of control | [8] 97 % of control

N#Cc1cn(C2OC(CO)C(O)C2O)c2ncnc(N)c12 (stereo not drawn)
active: dose: 31.3 micrograms/kg/injection, schedule: Q01DX010 (ip), vehicle: saline 155 % of control
inactive: dose: 0.12 mg/kg/injection, schedule: Q01DX Z (ip), vehicle: carboxymethylcellulose (CMC) 114 % of control | dose: 0.25 mg/kg/injection, schedule: Q01DX Z (ip), vehicle: carboxymethylcellulose (CMC) 106 % of control | dose: 0.5 mg/kg/injection, schedule: Q01DX Z (ip), vehicle: carboxymethylcellulose (CMC) 93 % of control | dose: 1.0 mg/kg/injection, schedule: Q01DX Z (ip), vehicle: carboxymethylcellulose (CMC) 106 % of control | dose: 8.0 micrograms/kg/injection, schedule: Q01DX Z (ip), vehicle: carboxymethylcellulose (CMC) 103 % of control | dose: 16.0 micrograms/kg/injection, schedule: Q01DX Z (ip), vehicle: carboxymethylcellulose (CMC) 103 % of control | dose: 31.0 micrograms/kg/injection, schedule: Q01DX Z (ip), vehicle: carboxymethylcellulose (CMC) 97 % of control | dose: 62.5 micrograms/kg/injection, schedule: Q01DX010 (ip), vehicle: saline 105 % of control | dose: 125.0 micrograms/kg/injection, schedule: Q01DX010 (ip), vehicle: saline 105 % of control | dose: 250.0 micrograms/kg/injection, schedule: Q01DX010 (ip), vehicle: saline 105 % of control

C[C@H]1C(=O)O[C@@H]2CCN3CC=C(COC(=O)[C@](C)(O)[C@@]1(C)O)[C@H]23
inactive: dose: 0.99 mg/kg/injection, schedule: Q01DX Z (ip), vehicle: carboxymethylcellulose (CMC) 97 % of control | dose: 1.88 mg/kg/injection, schedule: Q01DX Z (ip), vehicle: carboxymethylcellulose (CMC) 94 % of control | dose: 3.13 mg/kg/injection, schedule: Q01DX010 (ip), vehicle: saline 100 % of control | dose: 3.75 mg/kg/injection, schedule: Q01DX Z (ip), vehicle: carboxymethylcellulose (CMC) 90 % of control | [9] 100 % of control | [10] 121 % of control and 87 % of control | [11] 115 % of control and 100 % of control | [12] 94 % of control

C[n+]1c2ccccc2nc2c(N)cc(N)cc21
inactive: [4] 114 % of control | [5] 97 % of control | dose: 6.3 mg/kg/injection, schedule: Q01DX Z (ip), vehicle: carboxymethylcellulose (CMC) 115 % of control | [6] 104 % of control and 105 % of control | [7] 117 % of control and 96 % of control

CC[C@]1(O)C[C@H]2CN(CCc3c([nH]c4ccccc34)[C@@](C(=O)OC)(c3cc4c(cc3OC)N(C=O)[C@H]3[C@@](O)(C(=O)OC)[C@H](OC(C)=O)[C@]5(CC)C=CCN6CC[C@]43[C@@H]65)C2)C1
inactive: dose: 0.06 mg/kg/injection, schedule: Q01DX Z (ip), vehicle: water 102 % of control | dose: 0.12 mg/kg/injection, schedule: Q01DX Z (ip), vehicle: water 109 % of control | dose: 0.25 mg/kg/injection, schedule: Q01DX Z (ip), vehicle: water 116 % of control | dose: 0.5 mg/kg/injection, schedule: Q01DX Z (ip), vehicle: water 120 % of control and 101 % of control

O=c1[nH]cc(F)c(=O)[nH]1
inactive: [1] 115 % of control and 118 % of control and 100 % of control | [2] 122 % of control
active: [3] 155 % of control and 190 % of control and 193 % of control

N#CCSc1ncnc2nc[nH]c12
inactive: [6] 97 % of control | [7] 95 % of control | dose: 30.0 mg/kg/injection, schedule: Q01DX010 (ip), vehicle: saline 94 % of control | dose: 50.0 mg/kg/injection, schedule: Q01DX Z (ip), vehicle: carboxymethylcellulose (CMC) 114 % of control and 95 % of control | dose: 60.0 mg/kg/injection, schedule: Q01DX010 (ip), vehicle: saline 88 % of control | dose: 120.0 mg/kg/injection, schedule: Q01DX010 (ip), vehicle: saline 100 % of control

Nc1nc(N)c2nc(CNc3ccc(C(=O)NC(CCC(=O)O)C(=O)O)cc3)cnc2n1 (stereo not drawn)
inactive: dose: 0.05 mg/kg/injection, schedule: Q01DX010 (ip), vehicle: other 100 % of control | dose: 0.1 mg/kg/injection, schedule: Q01DX010 (ip), vehicle: other 116 % of control
active: dose: 0.2 mg/kg/injection, schedule: Q01DX010 (ip), vehicle: other 177 % of control | dose: 0.4 mg/kg/injection, schedule: Q01DX010 (ip), vehicle: other 194 % of control

O=c1[nH]c(=O)n(C2CC(O)C(CO)O2)cc1I (stereo not drawn)
inactive: dose: 63.0 mg/kg/injection, schedule: Q01DX Z (ip), vehicle: carboxymethylcellulose (CMC) 104 % of control | dose: 250.0 mg/kg/injection, schedule: Q01DX Z (ip), vehicle: carboxymethylcellulose (CMC) 124 % of control | dose: 1000.0 mg/kg/injection, schedule: Q01DX010 (ip), vehicle: saline 116 % of control

Cc1cc2nc3c(=O)[nH]c(=O)nc-3n(CC(O)C(O)C(O)C(O)CO)c2cc1C (stereo not drawn)
inactive: [11] 100 % of control | [12] 118 % of control | [13] 106 % of control and 94 % of control | [14] 106 % of control and 94 % of control | [15] 112 % of control
